Source: PubChem BioAssay (NCI)
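Interpolation was linear, between the two tested concentrations surrounding the appropriate level; five concentrations were tested over 48 hours in 96-well plates. At the GI50, growth is halved. Definition used: TGI = concentration required for complete inhibition of growth.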

Legend:
Test in all cases: NCI anticancer screen, dose series, 48 h
HCT-15 colon = tested on: HCT-15 colon
SK-OV-3 ovarian = tested on: SK-OV-3 ovarian
TK-10 renal = tested on: TK-10 renal
NCI/ADR-RES ovarian = tested on: NCI/ADR-RES ovarian
MDA-MB-435 = tested on: MDA-MB-435
NCI-H23 lung = tested on: NCI-H23 lung
SK-MEL-5 melanoma = tested on: SK-MEL-5 melanoma
786-0 renal = tested on: 786-0 renal
HT29 colon = tested on: HT29 colon
RXF 393 renal = tested on: RXF 393 renal
BT-549 breast = tested on: BT-549 breast
UACC-62 melanoma = tested on: UACC-62 melanoma
PC-3 prostate = tested on: PC-3 prostate
M14 melanoma = tested on: M14 melanoma
A549 NSCLC = tested on: A549 NSCLC
NCI-H460 lung = tested on: NCI-H460 lung
HCC-2998 colon = tested on: HCC-2998 colon
HOP-92 NSCLC = tested on: HOP-92 NSCLC
SF-268 CNS = tested on: SF-268 CNS
EKVX NSCLC = tested on: EKVX NSCLC
NCI-H522 lung = tested on: NCI-H522 lung
A498 renal = tested on: A498 renal
KM12 colon = tested on: KM12 colon
SF-295 CNS = tested on: SF-295 CNS
UACC-257 melanoma = tested on: UACC-257 melanoma
HS 578T breast = tested on: HS 578T breast
MDA-MB-231 breast = tested on: MDA-MB-231 breast
SW-620 colon = tested on: SW-620 colon

O/N=C(\CSc1nnc(-c2c[nH]c3ccccc23)n1-c1ccccc1)c1ccc(Cl)cc1
TGI (HCT-15 colon): 13.6 µM
GI50 (SK-OV-3 ovarian): 3.38 µM
TGI (SK-OV-3 ovarian): 12.4 µM
GI50 (TK-10 renal): 3.7 µM
TGI (TK-10 renal): 17.7 µM
GI50 (NCI/ADR-RES ovarian): 2.95 µM
TGI (NCI/ADR-RES ovarian): 9.5 µM
GI50 (MDA-MB-435): 1.74 µM
TGI (MDA-MB-435): 3.41 µM
GI50 (NCI-H23 lung): 6.51 µM
TGI (NCI-H23 lung): > 100 µM
GI50 (SK-MEL-5 melanoma): 3.87 µM
TGI (SK-MEL-5 melanoma): 19.5 µM
GI50 (786-0 renal): 7.29 µM
TGI (786-0 renal): > 100 µM
GI50 (HT29 colon): 3.04 µM
TGI (HT29 colon): 11.8 µM
GI50 (RXF 393 renal): 2.22 µM
TGI (RXF 393 renal): 6.29 µM
GI50 (BT-549 breast): 3.71 µM
TGI (BT-549 breast): 11.1 µM
GI50 (UACC-62 melanoma): 2.62 µM
TGI (UACC-62 melanoma): 10.1 µM
GI50 (PC-3 prostate): 2.31 µM
TGI (PC-3 prostate): 7.29 µM
GI50 (M14 melanoma): 3.16 µM
TGI (M14 melanoma): 14.1 µM
GI50 (A549 NSCLC): 3.35 µM
TGI (A549 NSCLC): 16.8 µM
GI50 (NCI-H460 lung): 3.34 µM
TGI (NCI-H460 lung): 15.7 µM
GI50 (HCC-2998 colon): 4.74 µM
TGI (HCC-2998 colon): 22.5 µM
GI50 (HOP-92 NSCLC): 3.84 µM
TGI (HOP-92 NSCLC): 37.6 µM
GI50 (SF-268 CNS): 2.11 µM
TGI (SF-268 CNS): 5.08 µM
GI50 (EKVX NSCLC): 3.21 µM
TGI (EKVX NSCLC): 19.2 µM
GI50 (NCI-H522 lung): 3.11 µM
TGI (NCI-H522 lung): 12.5 µM
GI50 (A498 renal): 15.4 µM
TGI (A498 renal): 65.8 µM
GI50 (KM12 colon): 4.72 µM
TGI (KM12 colon): > 100 µM
GI50 (SF-295 CNS): 3.11 µM
TGI (SF-295 CNS): 13.4 µM
GI50 (UACC-257 melanoma): 4.67 µM
TGI (UACC-257 melanoma): 87.8 µM
GI50 (HS 578T breast): 3.09 µM
TGI (HS 578T breast): 16.6 µM
GI50 (MDA-MB-231 breast): 1.87 µM
TGI (MDA-MB-231 breast): 3.66 µM
GI50 (SW-620 colon): 3.08 µM
TGI (SW-620 colon): 16.1 µM
